The results in this text go back to EP2364976B1, “S1P receptor modulating compounds and use thereof” (EPIX Pharmaceuticals, Inc., priority 2007, dated 2007).

“And” between values parts separate entries of the source, which are not always exact repeats. Equal entries are not always repeated. Structures can show the parent of a compound that is named as a salt.

One may read the EC50 as the concentration giving half of the maximal effect. A low value points to greater potency.

T1 sequence (P21453 whole entry): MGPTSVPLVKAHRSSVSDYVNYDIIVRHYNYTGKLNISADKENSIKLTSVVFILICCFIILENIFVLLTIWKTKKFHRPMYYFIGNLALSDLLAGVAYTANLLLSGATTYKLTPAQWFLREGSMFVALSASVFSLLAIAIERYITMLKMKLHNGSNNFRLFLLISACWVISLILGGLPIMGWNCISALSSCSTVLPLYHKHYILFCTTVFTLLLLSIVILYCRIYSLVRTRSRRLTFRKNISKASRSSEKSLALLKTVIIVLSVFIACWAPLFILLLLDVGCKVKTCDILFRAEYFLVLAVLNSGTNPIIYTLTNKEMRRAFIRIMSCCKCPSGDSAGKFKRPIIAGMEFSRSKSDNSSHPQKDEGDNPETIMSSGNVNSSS

The experiment concerns the target T1, hS1P1 (Homo sapiens, UniProt P21453).
T1 construct: expressed in transfected cells
The experiment in a line: hS1P1 EC50 (S1P receptor Ca2+ flux protocol, FLIPR, CHO K1 Gqi5 cells). Format: cell-based. To be noted: several values per compound = repeat determinations as printed. On the procedure:
S1P receptor activity may also be measured by an SIP receptor (e.g., hS1P1, hS1P3, rS1P1, rS1P3 and parental cell) Ca^2+ Flux protocol as described below: • 1. Material • a. FLIPR buffer: 1x HBSS; 10mM HEPES • b. Cell growth media: • i. human and rat S1P1 and S1P3: F12-Ham's media; 10% FBS (qualified); 1x Pen/Strep/Glu; 300ug/mL Hygromycin; 400ug/mL Geneticin ii. Parental cell: human and rat S1P and S1P3: F12-Ham's media; 10% FBS (qualified); 1x Pen/Strep/Glu; 300ug/mL Hygromycin; • c. Cell seeding media; F12-Ham's media; 10% FBS (Charcoal/dextran stripped); 1x Pen/Strep/Glu; • d. Cell dissociation buffer: Versene from Invitrogen • e. Agonist (SIP) dissolving buffer: 0.4% (w/v) fatty-acid free BSA (Sigma # A8806) in FLIPR buffer • f. FLIPR dye: BD PBX Calcium assay kit; Cat#641077 is composed of Calcium indicator (Cat#850000) and 100x PBX signal enhancer (cat#850001). The 100x PBX signal enhancer is diluted into FLIPR buffer 1:100 and the calcium indicator is then added at 1:1000 ratio. • g. Cell plates (96-well): Greiner Cat#655090 • h. Compound plates (96-well): Costar #3365 • i. S1P stock solution preparation: S1P is purchased from CalBioChem (Catalog # 970471; 1mg vial; custom prep using methanol, & nitrogen gas drying inside glass vial; Storage @ -20°C). Dissolve 1 vial of SIP into 26.4ml of agonist dissolving buffer in a 50ml centrifuge tube; Remove label from bottle of SIP, open and drop entire bottle into tube. Sonicate at 37° for ½ hour. Clear solution of 100µM will result. This stock solution is aliquoted and stored at -80C • 2. Cell line maintenance • a. V5 tags were added at the N-terminus of hS1P1, hS1P3, rS1P1 and rS1P3. All four genes were transfected into CHO K1 cells which stably express Gqi5. • b. hS1P1 and hS1P3 were established as stable clones and rS1P1 and rS1P3 were sorted by anti V5 tag and established as stable pools after sorting. • c. Parental cell line CHO/K1 Gqi5 is used as the control. • d. All the cells are maintained in cell growth media and splitted twice a week using Versene. • e. All the cell lines are used under passage 30. • 3. Assay protocol • a. Cell seeding: Cells are lifted from the flask by Versene and seeded in cell plates at 50K/well in cell seeding media. Cells are grown overnight at 37 degree. • b. Cell loading: Cell seeding media is discarded. Cells are loaded with 50ul of FLIPR dye at RT for 90 min. Signal is stable for up to 5 h after dye loading. • c. Agonist (S1P) preparation: Frozen stock of S1P is thawed out and sonicated at 37c for 30 minutes every time before use. The stock is then diluted into FLIPR buffer at proper concentration. • d. Compound preparation: Compounds are dissolved in DMSO. A 3x, 10 point dilution of the compounds are carried out in DMSO. Then the compounds are diluted into assay buffer133x so that the DMSO concentration is 0.75%. • e. Activity measurement: The fluorescence signal change of the cells upon compound addition is monitored in FLIPRtetra. 25ul of compound is transferred into the cell plates (50ul of FLIPR dye; DMSO concentration: 0.25%). Signal is recorded for 90sec after compound addition. Then 50ul of 500nM SIP is added in the cell plate, and signal is recorded for 90 seconds upon addition. • 4. Data analysis • a. Peak value is calculated for each compound/S1P addition • b. The peak value of S1P at 200nM is used as high control (100%), and the peak value of buffer only is used as low control (0%). • c. Data is normalized against high and low controls using the following equation: POC_S = 100*(RAW-LO)/(HI-LO) [formula] • d. Peak value is plotted against the concentration of compound. • e. Curve is fitted using the 4 parameter fit: Y = (A+(B/(1+(((x/C))^(∧)D)))) [formula] where: Y is POC_S (or POC) • X is compound concentration • A is the minimum (EC50min or IC50min) • B is the maxmum (EC50max or IC50max) • C is the inflection point (EC50IP or IC50IP) • D is the hill slope (EC50 slope or IC50 slope).
On the technique in general: Calcium assays in cells follow changes in intracellular calcium, usually with a dye or a luminescent sensor.
Turning to `O=C(O)C1CN(Cc2ccc(-c3cc4cc(C(=NO)c5ccccc5)ccc4o3)c(F)c2)C1` (mixture of isomers) [Reference Compound 103, (E/Z)-1-((3-Fluoro-4-(5-((hydroxyimino)(phenyl)methyl)benzofuran-2-yl)phenyl)methyl)azetidine-3-carboxylic acid], the EC50 was 16 nM. That is a double-digit nanomolar value. On to `O=C(O)C1CCN(Cc2ccc(-c3cc4cc(Cc5ccccc5)ccc4o3)c(F)c2)C1` (racemic) [Reference Compound 41], for which it took 315 nM to reach a half-maximal effect (EC50). With `O=C(O)C1CN(Cc2ccc(-c3cc4cc(Cc5ccccc5)cnc4o3)c(F)c2)C1` [Inventive Compound 98, 1-((3-Fluoro-4-(5-(phenylmethyl)furo[2,3-b]pyridin-2-yl)phenyl)methyl)-3-azetidinecarboxylic acid] the figure was 27 nM.

`O=C(O)C1CN(Cc2ccc(-c3nc4cc(Cc5ccccc5)ccc4s3)c(F)c2)C1` [Inventive Compound 114, 1-((4-(5-Benzylbenzo[d]thiazol-2-yl)-3-fluorophenyl)methyl)azetidine-3-carboxylic acid]: a half-maximal response (EC50) required 29 nM. With `O=C(O)C1CN(Cc2ccc(-c3nc4cc(Sc5ccccc5)ccc4o3)c(F)c2)C1` [Inventive Compound 117, 1-((3-Fluoro-4-(5-(phenylthio)benzo[d]oxazol-2-yl)phenyl)methyl)azetidine-3-carboxylic acid] the figure was 3 nM; with `O=C(O)C1CN(Cc2ccc(-c3cn4ccc(Cc5ccccc5)cc4n3)c(F)c2)C1` [Inventive Compound 119, 1-(4-(7-Benzyl-1H-imidazo[1,2-a]pyridin-2-yl)-3-fluorobenzyl)azetidine-3-carboxylic acid, trifluoroacetic acid salt], 54 nM. `O=C(O)C1CN(Cc2ccc(-c3cc4cc(-c5ccccc5)ccc4o3)cc2)C1` [Reference Compound 1, 1-(4-(5-Phenylbenzofuran-2-yl)benzyl)azetidine-3-carboxylic acid] gave an EC50 of 1200 nM. For the compound `CCCCc1ccc2oc(-c3ccc(CN4CC(C(=O)O)C4)cc3)cc2c1` [Reference Compound 2, 1-((4-(5-Butylbenzofuran-2-yl)phenyl)methyl)azetidine-3-carboxylic acid], the EC50 is 200 nM and 510 nM and 867 nM.

For the compound `CCCCOc1ccc2oc(-c3ccc(CN4CC(C(=O)O)C4)cc3)cc2c1` [Reference Compound 3], a half-maximal response (EC50) required 520 nM.

`O=C(O)C1CN(Cc2ccc(-c3cc4cc(Cc5ccccc5)ccc4o3)cc2)C1` [Reference Compound 4, 1-((4-(5-Benzylbenzofuran-2-yl)phenyl)methyl)azetidine-3-carboxylic acid]: the EC50 is 400 nM and 460 nM and 420 nM and 107 nM. Under `O=C(O)C1CN(Cc2ccc(-c3cc4cc(C5CCCCC5)ccc4o3)cc2)C1` [Reference Compound 6, 1-(4-(5-cyclohexylbenzofuran-2-yl)benzyl)azetidine-3-carboxylic acid] stands 970 nM and 400 nM and 440 nM and 421 nM; under `O=C(O)C1CCN(Cc2ccc(-c3cc4cc(C5CCCCC5)ccc4o3)cc2)CC1` [Reference Compound 7, 1-(4-(5-cyclohexylbenzofuran-2-yl)benzyl)piperidine-4-carboxylic acid], 1600 nM; under `CCCCc1ccc2oc(-c3ccc(CN4CCC(C(=O)O)CC4)cc3)cc2c1` [Reference Compound 8, 1-((4-(5-Butylbenzofuran-2yl)phenyl)methyl)pineridine-4-carbocylic acid], 3100 nM. With `O=C(O)C1CCN(Cc2ccc(-c3cc4cc(Cc5ccccc5)ccc4o3)cc2)CC1` [Reference Compound 9, 1-(4-(5-Benzylbenzofuran-2-yl)phenyl)methyl piperldine4-carboxylic acid] the figure was 4800 nM; with `CC(C)Cc1ccc2oc(-c3ccc(CN4CC(C(=O)O)C4)cc3)cc2c1` [Reference Compound 10, 1-((4-(5-isobutylbenzofuran-2-yl)phenyl)methyl)azetidine-3-carboxylic acid], 270 nM and 490 nM and 383 nM. With `O=C(O)C1CN(Cc2ccc(-c3cc4cc(CCc5ccccc5)ccc4o3)cc2)C1` [Reference Compound 11, 1-((4-(5-phenethylbenzofaran-2-yl)phenyl)methyl)azetidine-3-carboxylic acid] the figure was 580 nM; with `O=C(O)C1CN(Cc2ccc(-c3cc4cc(-c5cccnc5)ccc4o3)cc2)C1` [Reference Compound 12, 1-(4-(5-(pyridin-3-yl)benzofuran-2-yl)benzyl)azetidine-3-carboxylic acid], 3600 nM; with `CC(C)Cc1ccc2oc(-c3ccc(CN4CCC(C(=O)O)CC4)cc3)cc2c1` [Reference Compound 13, 1-(4-(5-isobutylbenzofuran-2yl)benzyl)piperidine-4-carboxylic acid], 1700 nM. Regarding `O=C(O)C1CN(Cc2ccc(-c3cc4cc(Cc5ccccc5)ccc4o3)cc2F)C1` [Reference Compound 14, 1-((4-(5-Benzylbenzofuran-2-yl)2-fluorophenyl)methyl)azetidine-3-carboxylic acid], the EC50 was 620 nM and 334 nM. With `O=C(O)C1CN(Cc2ccc(-c3cc4cc(Cc5ccccc5)ccc4o3)c(F)c2)C1` [Reference Compound 15, 1-((4-(5-Benzylbenzofuran-2-yl)-3-fluorophenyl)methyl)azetidine-3-carboxylic acid] the figure was 160 nM and 38 nM; with `CCCCOc1ccc2oc(-c3ccc(CN4CCC(C(=O)O)CC4)cc3)cc2c1` [Reference Compound 16], 17000 nM. With `O=C(O)C1CN(Cc2ccc(-c3cc4cc(C5CCCCC5)ccc4o3)nc2)C1` [Reference Compound 17, 1-((6-(5-cyclohexylbenzofuran-2-yl)pyridin-3-yl)methyl)azetidine-3-carboxylic acid] the figure was 720 nM and 302 nM; with `Cc1cccc(-c2ccc3oc(-c4ccc(CN5CC(C(=O)O)C5)cc4)cc3c2)n1` [Reference Compound 18, 1-(4-(5-(6-methylpyridin-2-yl)benzofuran-2-yl)benzyl)azetidine-3-carboxylic acid], 2900 nM; with `O=C(O)C1CN(Cc2ccc(-c3cc4cc(Oc5ccccc5)ccc4o3)cc2)C1` [Reference Compound 19, 1-(4-(5-phenoxybenzofuran-2-yl)benzyl)azetidine-3-carboxylic acid], 510 nM and 92 nM. On to `CC(C)CCc1ccc2oc(-c3ccc(CN4CC(C(=O)O)C4)cc3)cc2c1` [Reference Compound 20, 1-((4-(5-Isopentylbenzofuran-2-yl)phenyl)methyl)azetidine-3-carboxylic acid], for which the half-maximal effective concentration (EC50) was 630 nM. As for `CCCCOc1ccc2cc(-c3ccc(CN4CC(C(=O)O)C4)cc3)oc2c1` [Reference Compound 21, 1-((4-(6-Butoxybenzofuran-2-yl)phenyl)methyl)azetidine-3-carboxylic acid], the EC50 is 2000 nM. Under `CCCCOc1ccc2oc(-c3ccc(CN4CC(C(=O)O)C4)cc3OC)cc2c1` [Reference Compound 24] stands 420 nM and 700 nM.

`CCCCOc1ccc2oc(-c3ccc(CN4CC(C(=O)O)C4)s3)cc2c1` [Reference Compound 25, 1-((5-(5-butoxybenzofuran-2-yl)thiophen-2-yl)methyl)azetidine-3-carboxylic acid] had an EC50 of 1600 nM.
